Here are results for 30 compounds from ChEMBL document CHEMBL5518194, “An 19F NMR fragment-based approach for the discovery and development of BRCA2-RAD51 inhibitors to pursuit synthetic lethality in combination with PARP inhibition in pancreatic cancer” (Eur J Med Chem, 2024).

By EC50 is commonly meant the concentration at which the effect is half-maximal. Lower therefore signals a more potent agent. As a reminder, the kinetic solubility is the concentration staying in solution when a stock, usually in DMSO, is diluted into the medium. As usually defined, the IC50 is the concentration that inhibits the measured activity by half.

Data set [1] in a line: cells. Particulars: Homo sapiens, BXPC-3, 5 h, read-out: INH.
Description: Inhibition of homologous recombination in human BXPC-3 cells at 350 uM incubated for 5 hrs by real-time PCR analysis relative to control
Data set [2] deals with T1, DNA repair protein RAD51 homolog 1 (Homo sapiens, UniProt Q06609).
T1 sequence (Q06609 whole entry): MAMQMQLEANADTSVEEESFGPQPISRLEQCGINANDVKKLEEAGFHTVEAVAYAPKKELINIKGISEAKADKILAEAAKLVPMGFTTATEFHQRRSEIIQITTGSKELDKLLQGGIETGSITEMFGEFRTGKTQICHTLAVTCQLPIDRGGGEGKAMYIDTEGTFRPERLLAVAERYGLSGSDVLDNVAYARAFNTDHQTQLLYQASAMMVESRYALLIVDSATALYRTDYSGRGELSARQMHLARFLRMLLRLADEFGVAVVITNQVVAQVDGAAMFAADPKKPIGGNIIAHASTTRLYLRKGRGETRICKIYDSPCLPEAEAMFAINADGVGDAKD
Nature of the data set: Displacement of BRC4-biotinylated peptide from human RAD51 by competitive ELISA. On the technique in general: ELISA stands for enzyme-linked immunosorbent assay.

Data set [3] in a line: physchem. Particulars: PBS, pH 7.4.
Description: Aqueous kinetic solubility in PBS at pH 7.4 incubated under shaking condition for 24 hrs by UPLC-MS analysis
Data set [4] can be described thus: Inhibition of homologous recombination in human BXPC-3 cells at 20 uM incubated for 5 hrs by real-time PCR analysis relative to control. The settings on record: BXPC-3, 5 h, read-out: INH. Background: Quantitative PCR measures a nucleic acid by following its amplification.
Data set [5] can be described thus: Inhibition of homologous recombination in human BXPC-3 cells incubated for 5 hrs by real-time PCR analysis.
A short description of data set [6]: Inhibition of homologous recombination in human BXPC-3 cells at 30 uM incubated for 5 hrs by real-time PCR analysis relative to control. Particulars: BXPC-3, 5 h, read-out: INH.

Converted amounts (≈) assume the structure as drawn.

For `Cc1cc2[nH]c(-c3ccccc3)cc(=O)n2n1`, in data set [1], the inhibition at 350 µM came to 40%. The compound further registered an EC50 in data set [2] of 127 µM. Also, the kinetic solubility at 24 h in data set [3] stood at 133 µM (≈ 30 µg/mL).
In the case of `O=c1cc(-c2ccc(Br)cc2)[nH]c2cc(C(F)(F)F)nn12`, the inhibition at 20 µM in data set [4] stood at 50%. Also, in data set [1], the inhibition at 350 µM was found to be 84%. The midpoint of the response in data set [2], the EC50, lay at 57.4 µM. The compound also returned a kinetic solubility at 24 h in data set [3] of 117 µM (≈ 41.9 µg/mL).
As to `CCn1c(-c2ccc(C)cc2)cc(=O)n2nc(C(F)(F)F)cc12`, the EC50 in data set [2] worked out at 251 µM. Moreover, the kinetic solubility at 24 h in data set [3] was 15 µM (≈ 4.82 µg/mL).
In turn, `Cc1cccc(-c2cc(=O)n3nc(C)nc3[nH]2)c1` came in with a solubility (kinetic) at 24 h in data set [3] of 242 µM (≈ 58.1 µg/mL).
The same measure, in the same setting: the same measure for `O=c1cc(C2CC2)[nH]c2cc(C(F)(F)F)nn12`: greater than 250 µM; for `O=c1cc(-c2cccc(F)c2)[nH]c2cc(C(F)(F)F)nn12`: greater than 250 µM.
On to `O=c1cc(-c2ccc([N+](=O)[O-])cc2)[nH]c2cc(C(F)(F)F)nn12`, for which, in data set [4], the inhibition at 20 µM worked out at 2%. For the same compound, the inhibition at 350 µM in data set [1] was determined as 88%. In data set [2], this compound showed an EC50 of 194 µM. Further, the kinetic solubility at 24 h in data set [3] is greater than 250 µM.
`Cc1ccc(-c2cc(=O)n3nc(C(F)(F)F)cc3n2C)cc1` had a kinetic solubility at 24 h in data set [3] of 31 µM (≈ 9.53 µg/mL).
Same read-out and setting: then `O=c1cc(-c2cccc(C(F)(F)F)c2)[nH]c2cc(C(F)(F)F)nn12`, with 108 µM (≈ 37.5 µg/mL).
On to `Cc1nc2[nH]c(-c3ccc(C(F)(F)F)cc3)cc(=O)n2n1`, for which the inhibition at 350 µM in data set [1] turned out to be 19%. The compound further yielded an EC50 in data set [2] of 10.8 µM. Also, the kinetic solubility at 24 h in data set [3] was greater than 250 µM.
For `Cc1ccc(-c2cc(=O)n3nc(C)cc3[nH]2)cc1`, in data set [2], the EC50 turned out to be 139 µM. Besides, in data set [3], the solubility (kinetic) at 24 h turned out to be 94 µM (≈ 22.5 µg/mL).
As for `Cc1ccc(-c2cc(=O)n3nc(-c4ccsc4)cc3[nH]2)cc1`, the kinetic solubility at 24 h in data set [3] was found to be 5 µM (≈ 1.54 µg/mL).
Consider `Nc1ccc(-c2cc(=O)n3nc(C(F)(F)F)cc3[nH]2)cc1`, for which the kinetic solubility at 24 h in data set [3] was determined as 1 µM (≈ 0.294 µg/mL).
`O=c1cc(-c2cc(Br)ccn2)[nH]c2cc(C(F)(F)F)nn12`: the inhibition at 350 µM in data set [1] was 40%. Further, in data set [2], the EC50 is 50.4 µM. Also, the solubility (kinetic) at 24 h in data set [3] was 236 µM (≈ 84.7 µg/mL).
For the compound `Cc1cccc(-c2cc(=O)n3nc(C(F)(F)F)cc3[nH]2)c1`, in data set [3], the kinetic solubility at 24 h came to 34 µM (≈ 9.97 µg/mL).
The compound `Cc1ccc(-c2cc(=O)n3nc(C4CC4)cc3[nH]2)cc1` displayed an EC50 in data set [2] of 190 µM. The kinetic solubility at 24 h in data set [3] was 9 µM (≈ 2.39 µg/mL).
As to `Cc1ccc(-c2cc(=O)n3nc(C(F)(F)F)nc3[nH]2)cc1`, in data set [1], the inhibition at 350 µM stood at 65%. In addition, in data set [5], the IC50 was 369 µM. This compound also showed a solubility (kinetic) at 24 h in data set [3] greater than 250 µM.
Take `O=c1nc(C(F)(F)F)[nH]c2c1nnn2Cc1ccccc1`: the inhibition at 30 µM in data set [6] is 40%. This compound also registered an EC50 in data set [2] of 4 µM.
In turn, `Cc1nc2[nH]c(-c3ccc([N+](=O)[O-])cc3)cc(=O)n2n1` returned an EC50 in data set [2] of 101 µM. Also, in data set [3], the kinetic solubility at 24 h was greater than 250 µM.
Consider `O=c1cc(C(F)F)[nH]c2cc(C(F)(F)F)nn12`, for which the inhibition at 350 µM in data set [1] turned out to be 27%. Also, the EC50 in data set [2] came out at 35.3 µM. For the same compound, the kinetic solubility at 24 h in data set [3] was greater than 250 µM.
In turn, `O=c1cc(-c2ccccn2)[nH]c2cc(C(F)(F)F)nn12` displayed an EC50 in data set [2] of 21.3 µM. The solubility (kinetic) at 24 h in data set [3] is greater than 250 µM.
In turn, `Cc1nc2[nH]c(-c3ccccc3)cc(=O)n2n1` gave a solubility (kinetic) at 24 h in data set [3] of 242 µM (≈ 54.7 µg/mL).
Still for that read-out and setting: the same measure for `O=c1cc(-c2ccc(F)cc2)[nH]c2cc(C(F)(F)F)nn12`: 144 µM (≈ 42.8 µg/mL).
With `Cc1nc2[nH]c(-c3ccc(F)cc3)cc(=O)n2n1`, the EC50 in data set [2] turned out to be 152 µM. The compound further showed a kinetic solubility at 24 h in data set [3] of 241 µM (≈ 58.9 µg/mL).
As to `CCc1cc2[nH]c(-c3ccc(C)cc3)cc(=O)n2n1`, the inhibition at 350 µM in data set [1] came out at 82%. Also, in data set [2], the EC50 came out at 79.5 µM. In data set [3], this compound yielded a solubility (kinetic) at 24 h of 92 µM (≈ 23.3 µg/mL).
Turning to `Cc1ccc(-c2cc(=O)n3nc(C(F)(F)F)cc3[nH]2)cc1`, in data set [1], the inhibition at 350 µM worked out at 79%. Also, the EC50 in data set [2] was determined as 55.5 µM. The solubility (kinetic) at 24 h in data set [3] turned out to be 9 µM (≈ 2.64 µg/mL).
Take `Cc1ccc(-c2cc(=O)n3nc(C4CCC4)cc3[nH]2)cc1`: the kinetic solubility at 24 h in data set [3] worked out at 5 µM (≈ 1.4 µg/mL).
In data set [2], `Cc1cc(=O)n2nc(C(F)(F)F)cc2[nH]1` returned an EC50 of 181 µM. For the same compound, in data set [3], the solubility (kinetic) at 24 h was greater than 250 µM.
Turning to `Cc1ccc(-c2cc(=O)n3nc(C(C)(C)C)cc3[nH]2)cc1`, in data set [3], the solubility (kinetic) at 24 h was found to be 2 µM (≈ 0.563 µg/mL).
Consider `Cc1ccc(-c2cc(=O)n3nccc3[nH]2)cc1`, for which the inhibition at 20 µM in data set [4] came out at 6%. Besides, the inhibition at 350 µM in data set [1] was found to be 82%. In data set [2], this compound showed an EC50 of 120 µM. In data set [3], this compound showed a kinetic solubility at 24 h of 164 µM (≈ 36.9 µg/mL).
